Results from patent US20210267973A1, “COMBINATION OF A TYPE II PROTEIN ARGININE […] INHIBITOR AND AN ICOS BINDING PROTEIN TO TREAT CANCER” (GLAXOSMITHKLINE INTELLECTUAL PROPERTY DEVELOPMENT LIMITED, priority 2018, published 2021).

Assays:
[1] = system: SDMA, MDM4 splicing, p53 in GBM and lymphoma cell lines; assay: SDMA, MDM4 splicing and p53 in GBM and lymphoma cell lines; type: cell-based; conditions: 1 μM
Protocol: Next, effects on cellular methylation and the p53 pathway were evaluated in GBM cells treated with a PRMT5 inhibitor by measuring SDMA, p53 and p21 protein levels and MDM4 splicing (FIG. 27). […] Alternative MDM4 splicing was detected in all cell lines but SF539 which are p53 mutant and have low basal expression of the long MDM4 isoform (FIG. 27, panel A). p53 levels increased in all cell lines, while the induction of p21 protein was observed only in cell lines that have wild-type p53 (Z138 (MCL), U87-MG and A172 (GBM)). […] The role of p53 in the response of GBM cell lines to PRMT5 inhibition will be further tested in future studies. Additionally, the effects of PRMT5 inhibition on cell cycle and neural differentiation in GBM models are being explored.

[2] = system: 19 enzymes on the methyltransferase selectivity panel (Type I and Type II PRMTs and lysine methyltransferases); assay: methyltransferase selectivity panel; type: biochemical; conditions: PRMT5 tool compounds
Description: FIG. 6: Phylogenetic tree highlighting the methyltransferases tested in the selectivity panel. […] PRMT9 is shown for relationship purposes only within the family tree and was not evaluated in the panel. Figure adapted from Richon V M. et al.
PRMT9/FBXO11, which is the other Type II PRMT and the only PRMT to lack the THW loop, was not included due to the lack of a functional enzyme assay.

[3] = system: cellular splicing in lymphoma cell lines; assay: RNA-sequencing splicing analysis in lymphoma cell lines; type: cell-based
Protocol: A. Mechanisms of regulation of cellular splicing (adapted from Bezzi M. et al.). B. Analysis of intron expression in lymphoma lines treated with 0.1 or 0.5 μM Compound B.
A. Quantification of isoform switches in 4 lymphoma cell lines treated with Compound B (0.1 and 0.5 μM) for 2 and 4 days. B. Overlap of isoform switches in 4 lymphoma lines. C. List of genes that undergo alternative splicing in all 4 lymphoma lines (overlap of 4 cell lines).
PRMT5 methylates histones and proteins involved in RNA processing and therefore PRMT5 inhibition is expected to have a profound effect on cellular mRNA homeostasis. To further decipher cellular mechanisms that are regulated by PRMT5 and contribute to the cellular response to PRMT5 inhibitors, global gene expression changes were evaluated in lymphoma models sensitive to PRMT5 inhibition. To elucidate gene expression changes that occur in lymphoma cell lines upon PRMT5 inhibitor treatment, 4 sensitive lymphoma lines (2 MCL lines-Z138 and Granta-519 and 2 DLBCL lines-DOHH2 and RL) were profiled by RNA-sequencing.
Since PRMT5 methylates spliceosome subunits and PRMT5 inhibition attenuates arginine methylation of a number of proteins involved in splicing, the effect of PRMT5 inhibin on cellular splicing was studied. The changes in RNA splicing were assessed in the lymphoma RNA-seq dataset described above. […]

[4] = system: SKBR3, MDA-MB-468, MCF-7, ZR-75-1 and Z-138 cells; assay: longer-term growth/death assay in breast and MCL cell lines; type: cell-based; conditions: SKBR3, MDA-MB-468 and MCF-7 cells, 7-10 days
[5] = system: MDM4 splicing, SDMA, p53 and p21 in MCL lines; assay: MDM4 splicing (RT-PCR) and SDMA/p53/p21 Western in MCL lines; type: cell-based; conditions: Z138 cells
Protocol: To understand whether p53 activation is associated with MDM4 isoform switching, MDM4 alternative splicing was analyzed. […] The role of the p53 pathway in the biology of the response of p53 wild-type MCL cells to PRMT5 inhibition is being evaluated.

[6] = system: panel of cancer cell lines; type: cell-based; conditions: most sensitive lymphoma lines (MCL and DLBCL)
Description: (§1) DLBCL-diffuse large B-cell lymphoma, GBM-glioblastoma, MCL-mantle cell lymphoma, […]
as §1
The cell lines were selected to represent tumor types where PRMT5 activity has been reported to regulate key pathways and/or cell growth and survival (such as lymphoma and MCL, glioma, breast and lung cancer lines).

[7] = system: MCL cell lines; assay: 6-day growth/death assay in a panel of MCL lines; type: cell-based; conditions: Mino, Jeko-1
Description: FIG. 18: Activity of PRMT5 inhibitor and ibrutinib as single agents and in combination in MCL cell lines. […] C.
• The strongest mechanistic link currently described between PRMT5 and cancer is in MCL. PRMT5 is frequently overexpressed in MCL and is highly expressed in the nuclear compartment where it increases levels of histone methylation and silences a subset of tumor suppressor genes. Importantly, cyclin D1, the oncogene that is translocated in the vast majority of MCL patients, associates with PRMT5 and through a cdk4-dependent mechanism increases PRMT5 activity. PRMT5 mediates the suppression of key genes that negatively regulate DNA replication allowing for cyclin D1-dependent neoplastic growth. PRMT5 knockdown inhibits cyclin D1-dependent cell transformation causing death of tumor cells.

[8] = system: xenograft models of mantle cell lymphoma; assay: xenograft models of mantle cell lymphoma (summary statement); type: in vivo
Description: […] • The strongest mechanistic link currently described between PRMT5 and cancer is in MCL. PRMT5 is frequently overexpressed in MCL and is highly expressed in the nuclear compartment where it increases levels of histone methylation and silences a subset of tumor suppressor genes. […] The vast majority of SDMA containing proteins were factors that are involved in cellular splicing and RNA processing (SmB, Lsm4, hnRNPH1 and others), transcription (FUBP1) and translation highlighting the role of PRMT5 as an important regulator of cellular RNA homeostasis.

[9] = system: Z-138 MCL xenograft; assay: 21-day efficacy study in Z-138 MCL xenograft model; type: in vivo; conditions: all groups in all efficacy studies presented
Protocol: B. Quantified SDMA western data from tumors harvested at the end of the efficacy study (3 hours post last dose).

[10] = system: MDA-MB-468 xenograft; assay: MDA-MB-468 triple negative breast cancer xenograft model; type: in vivo; conditions: 100 mg/kg BID
Protocol: Next, the efficacy of PRMT5 inhibition was evaluated in in vivo models of breast cancer.

## O=C(NC[C@H](O)CN1CCc2ccccc2C1)c1ccnc(NC2CCC2)c1 [Compound B]
[1]
  MDM4 splicing: induces alternative splicing of MDM4
  SDMA levels: decreases SDMA levels
  p53 activation: activates p53
[2]
  selectivity for PRMT5/MEP50 over the other methyltransferases: Selectivity for PRMT5/MEP50 over the other methyltransferases was also observed
[3]; 0.1 and 0.5 μM, 2 and 4 days, 4 lymphoma cell lines
  isoform switching: induces isoform switching for a subset of genes
[3]; 0.1 or 0.5 μM, lymphoma cell lines
  intron splicing: attenuates the splicing of a subset of introns
[4]
  nature of response upon prolonged exposure: cytotoxic response

## CC(=O)N1CCC(Nc2cc(C(=O)NC[C@H](O)CN3CCc4ccccc4C3)ncn2)CC1 [Compound C]
[5]; 200 nM
  p53 and p21 expression: increased
[6]
  gIC50: single digit
[7]
  sensitivity in 6-day growth/death assay: only moderately sensitive
[8]
  tumor growth inhibition (TGI): ~100%
[9]
  body weight: no body weight loss
[10]
  Maximal tumor growth inhibition (TGI): 83%
[4]
  nature of response upon prolonged exposure: cytotoxic response

## O=C(NC[C@H](O)CN1CCc2ccccc2C1)c1cc(NC2COC2)ncn1 [Compound E]
[2]
  selectivity for PRMT5/MEP50 over the other methyltransferases: Selectivity for PRMT5/MEP50 over the other methyltransferases was also observed

## CC(=O)N1CCC(Nc2cc(C(=O)NC[C@H](O)CN3CCc4ccccc4C3)ccn2)CC1 [Compound F]
[2]
  selectivity for PRMT5/MEP50 over the other methyltransferases: Selectivity for PRMT5/MEP50 over the other methyltransferases was also observed

## COc1ccc(C2=N[C@@H](c3ccc(Cl)cc3)[C@@H](c3ccc(Cl)cc3)N2C(=O)N2CCNC(=O)C2)c(OC(C)C)c1 [Nutlin-3, reference compound]
[5]; 5 μM
  p53 and p21 expression: increased
